The experiment concerns HeLa cells. As to the kind of experiment: Proliferation assay, crystal violet staining. Particulars: Homo sapiens, 96 h.
The mark [1] stands for this setting: read-out: Inhibition of HeLa cell proliferation, HeLa cells, 4 days incubation.

Read-outs that look alike come from different tables or passages of the source.

`CCn1nc(C)cc1-c1cc(N2CCOC[C@H]2C)nc2c(-c3ccn[nH]3)nccc12` [Example 113, 4-(1-ethyl-3-methyl-1H-pyrazol-5-yl)-2-[(3R)-3-methylmorpholin-4-yl]-8-(1H-pyrazol-5-yl)-1,7-naphthyridine]: the IC50 under setting [1] is 122 nM. As for `Cc1cnn(C)c1-c1cc(N2CCOC[C@H]2C)nc2c(-c3ccn[nH]3)nccc12` [Example 114, 4-(1,4-dimethyl-1H-pyrazol-5-yl)-2-[(3R)-3-methylmorpholin-4-yl]-8-(1H-pyrazol-5-yl)-1,7-naphthyridine], the IC50 under setting [1] came to 177 nM. Consider `CSc1ccc(-c2cc(N3CCOC[C@H]3C)nc3c(-c4ccn[nH]4)nccc23)c(C)n1` [Example 115, 4-[2-methyl-6-(methylsulfanyl)pyridin-3-yl]-2-[(3R)-3-methylmorpholin-4-yl]-8-(1H-pyrazol-5-yl)-1,7-naphthyridine], for which the IC50 under setting [1] was determined as 199 nM. Same read-out and setting: the figure for `Cc1nc(S(C)(=N)=O)ccc1-c1cc(N2CCOC[C@H]2C)nc2c(-c3ccn[nH]3)nccc12` (stereo partly drawn) [Example 116, 4-[2-methyl-6-(S-methylsulfonimidoyl)pyridin-3-yl]-2-[(3R)-3-methylmorpholin-4-yl]-8-(1H-pyrazol-5-yl)-1,7-naphthyridine] is 284 nM; for `CCCn1nccc1-c1cc(N2CCOC[C@H]2C)nc2c(-c3ccn[nH]3)nccc12` [Example 117, 2-[(3R)-3-methylmorpholin-4-yl]-4-(1-propyl-1H-pyrazol-5-yl)-8-(1H-pyrazol-5-yl)-1,7-naphthyridine] it is 225 nM; for `C[C@@H]1COCCN1c1cc(-c2cnc3n2CCC3)c2ccnc(-c3ccn[nH]3)c2n1` [Example 118, 4-(6,7-dihydro-5H-pyrrolo[1,2-a]imidazol-3-yl)-2-[(3R)-3-methylmorpholin-4-yl]-8-(1H-pyrazol-5-yl)-1,7-naphthyridine] it is 171 nM. With `CCn1nc(C(F)(F)F)cc1-c1cc(N2CCOC[C@H]2C)nc2c(-c3ccn[nH]3)nccc12` [Example 119, 4-[1-ethyl-3-(trifluoromethyl)-1H-pyrazol-5-yl]-2-[(3R)-3-methylmorpholin-4-yl]-8-(1H-pyrazol-5-yl)-1,7-naphthyridine], under setting [1], the IC50 is 425 nM.

With `COC(=O)c1ccc(-c2cc(N3CCOC[C@H]3C)nc3c(-c4ccn[nH]4)nccc23)[nH]1` [Example 120, methyl 5-{2-[(3R)-3-methylmorpholin-4-yl]-8-(1H-pyrazol-5-yl)-1,7-naphthyridin-4-yl}-1H-pyrrole-2-carboxylate], the IC50 under setting [1] stood at 354 nM. On to `C[C@@H]1COCCN1c1cc(-c2ccns2)c2ccnc(-c3ccn[nH]3)c2n1` [Example 121, 2-[(3R)-3-methylmorpholin-4-yl]-8-(1H-pyrazol-5-yl)-4-(1,2-thiazol-5-yl)-1,7-naphthyridine], for which the IC50 under setting [1] came to 352 nM. In the case of `C[C@@H]1COCCN1c1cc(-c2ccccc2N(C)C)c2ccnc(-c3ccn[nH]3)c2n1` [Example 122, N,N-dimethyl-2-{2-[(3R)-3-methylmorpholin-4-yl]-8-(1H-pyrazol-5-yl)-1,7-naphthyridin-4-yl}aniline], under setting [1], the IC50 was found to be 706 nM. On to `C[C@@H]1COCCN1c1cc(-c2ccc(F)cc2F)c2ccnc(-c3ccn[nH]3)c2n1` [Example 123, 4-(2,4-difluorophenyl)-2-[(3R)-3-methylmorpholin-4-yl]-8-(1H-pyrazol-5-yl)-1,7-naphthyridine], for which the IC50 under setting [1] came out at 431 nM.

Consider `CC(C)n1nccc1-c1cc(N2CCOC[C@H]2C)nc2c(-c3ccn[nH]3)nccc12` [Example 124, 4-(1-isopropyl-1H-pyrazol-5-yl)-2-[(3R)-3-methylmorpholin-4-yl]-8-(1H-pyrazol-5-yl)-1,7-naphthyridine], for which the IC50 under setting [1] amounted to 156 nM. `CC(C)COP(C)(=O)c1cc(N2CCOC[C@H]2C)nc2c(-c3ccn[nH]3)nccc12` (stereo partly drawn) [Example 127, isobutyl methyl{2-[(3R)-3-methylmorpholin-4-yl]-8-(1H-pyrazol-5-yl)-1,7-naphthyridin-4-yl}phosphinate]: the IC50 under setting [1] was 578 nM. On to `C[C@@H]1COCCN1c1cc(C(C)(C)O)c2ccnc(-c3ccn[nH]3)c2n1` [Example 128, 2-{2-[(3R)-3-methylmorpholin-4-yl]-8-(1H-pyrazol-5-yl)-1,7-naphthyridin-4-yl}propan-2-ol], for which the IC50 under setting [1] stood at 770 nM. For `CCC(O)(CC)c1cc(N2CCOC[C@H]2C)nc2c(-c3ccn[nH]3)nccc12` [Example 129, 3-{2-[(3R)-3-methylmorpholin-4-yl]-8-(1H-pyrazol-5-yl)-1,7-naphthyridin-4-yl}pentan-3-ol], under setting [1], the IC50 turned out to be 686 nM. Regarding `C[C@@H]1COCCN1c1cc(-c2cncc(Cl)c2)c2ccnc(-c3ccn[nH]3)c2n1` [Example 130, 4-(5-chloropyridin-3-yl)-2-[(3R)-3-methylmorpholin-4-yl]-8-(1H-pyrazol-5-yl)-1,7-naphthyridine], under setting [1], the IC50 turned out to be 374 nM. As for `C[C@@H]1COCCN1c1cc(-c2ccc(F)cc2N)c2ccnc(-c3ccn[nH]3)c2n1` [Example 131, 5-fluoro-2-{2-[(3R)-3-methylmorpholin-4-yl]-8-(1H-pyrazol-5-yl)-1,7-naphthyridin-4-yl}aniline], the IC50 under setting [1] was found to be 349 nM. Consider `C[C@@H]1COCCN1c1cc(-c2cccc(S(C)(=O)=O)c2F)c2ccnc(-c3ccn[nH]3)c2n1` [Example 132, 4-[2-fluoro-3-(methylsulfonyl)phenyl]-2-[(3R)-3-methylmorpholin-4-yl]-8-(1H-pyrazol-5-yl)-1,7-naphthyridine], for which the IC50 under setting [1] is 507 nM. As for `C[C@@H]1COCCN1c1cc(-c2ccnn2C2COC2)c2ccnc(-c3ccn[nH]3)c2n1` [Example 133, 2-[(3R)-3-methylmorpholin-4-yl]-4-[1-(oxetan-3-yl)-1H-pyrazol-5-yl]-8-(1H-pyrazol-5-yl)-1,7-naphthyridine], under setting [1], the IC50 is 1070 nM. For the compound `C[C@@H]1COCCN1c1cc(-c2ccc(N3CCCC3)cc2F)c2ccnc(-c3ccn[nH]3)c2n1` [Example 134, 4-[2-fluoro-4-(pyrrolidin-1-yl)phenyl]-2-[(3R)-3-methylmorpholin-4-yl]-8-(1H-pyrazol-5-yl)-1,7-naphthyridine], the IC50 under setting [1] worked out at 1530 nM.

With `COCc1noc(C)c1-c1cc(N2CCOC[C@H]2C)nc2c(-c3ccn[nH]3)nccc12` [Example 135, 4-[3-(methoxymethyl)-5-methyl-1,2-oxazol-4-yl]-2-[(3R)-3-methylmorpholin-4-yl]-8-(1H-pyrazol-5-yl)-1,7-naphthyridine], under setting [1], the IC50 was determined as 1820 nM. For the compound `Cc1nnc(-c2cc(N3CCOC[C@H]3C)nc3c(-c4ccn[nH]4)nccc23)o1` [Example 136, 2-[(3R)-3-methylmorpholin-4-yl]-4-(5-methyl-1,3,4-oxadiazol-2-yl)-8-(1H-pyrazol-5-yl)-1,7-naphthyridine], the IC50 under setting [1] is 575 nM. Turning to `C[C@@H]1COCCN1c1cc(N=S(C)(=O)c2ccc(F)cc2)c2ccnc(-c3ccn[nH]3)c2n1` (stereo partly drawn) [Example 138, 4-{[(4-fluorophenyl)(methyl)oxido-λ^6-sulfanylidene]amino}-2-[(3R)-3-methylmorpholin-4-yl]-8-(1H-pyrazol-5-yl)-1,7-naphthyridine], the IC50 under setting [1] was found to be 619 nM. As to `C[C@@H]1COCCN1c1cc(N=S(C)(=O)c2ccccc2F)c2ccnc(-c3ccn[nH]3)c2n1` (stereo partly drawn) [Example 139, 4-{[(2-fluorophenyl)(methyl)oxido-λ^6-sulfanylidene]amino}-2-[(3R)-3-methylmorpholin-4-yl]-8-(1H-pyrazol-5-yl)-1,7-naphthyridine], the IC50 under setting [1] is 1370 nM. The same measure, in the same setting: for `C[C@@H]1COCCN1c1cc(P(C)(C)=O)c2ccnc(-c3ccn[nH]3)c2n1` [Example 142, 4-(dimethylphosphoryl)-2-[(3R)-3-methylmorpholin-4-yl]-8-(1H-pyrazol-5-yl)-1,7-naphthyridine] the value was 1590 nM.

Regarding `CCP(=O)(CC)c1cc(N2CCOC[C@H]2C)nc2c(-c3ccn[nH]3)nccc12` [Example 143, 4-(diethylphosphoryl)-2-[(3R)-3-methylmorpholin-4-yl]-8-(1H-pyrazol-5-yl)-1,7-naphthyridine], under setting [1], the IC50 was determined as 543 nM.

As to `CCOP(=O)(CC(C)C)c1cc(N2CCOC[C@H]2C)nc2c(-c3ccn[nH]3)nccc12` (stereo partly drawn) [Example 144, ethyl isobutyl{2-[(3R)-3-methylmorpholin-4-yl]-8-(1H-pyrazol-5-yl)-1,7-naphthyridin-4-yl}phosphinate], the IC50 (read-out: Inhibition of HeLa cell proliferation) was above 3000 nM. On to `CC(C)Cn1nccc1-c1cc(N2CCOC[C@H]2C)nc2c(-c3ccn[nH]3)nccc12` [Example 146, 4-(1-isobutyl-1H-pyrazol-5-yl)-2-[(3R)-3-methylmorpholin-4-yl]-8-(1H-pyrazol-5-yl)-1,7-naphthyridine], for which the IC50 under setting [1] came out at 1110 nM. On to `C[C@@H]1COCCN1c1cc(-c2cnc(S(C)(=O)=O)c(F)c2)c2ccnc(-c3ccn[nH]3)c2n1` [Example 147, 4-[5-fluoro-6-(methylsulfonyl)pyridin-3-yl]-2-[(3R)-3-methylmorpholin-4-yl]-8-(1H-pyrazol-5-yl)-1,7-naphthyridine], for which, under setting [1], the IC50 was 953 nM.

Consider `C[C@@H]1COCCN1c1cc(N2CCOCC2)nc2c(-c3ccn[nH]3)nccc12` [Example 148, 4-[(3R)-3-methylmorpholin-4-yl]-2-(morpholin-4-yl)-8-(1H-pyrazol-5-yl)-1,7-naphthyridine], for which the IC50 under setting [1] turned out to be 805 nM.

For `C[C@@H]1COCCN1c1cc(-c2cccc(F)n2)c2ccnc(-c3ccn[nH]3)c2n1` [Example 152, 4-(6-fluoropyridin-2-yl)-2-[(3R)-3-methylmorpholin-4-yl]-8-(1H-pyrazol-5-yl)-1,7-naphthyridine], the IC50 under setting [1] amounted to 671 nM. On to `CCn1cnc(-c2cc(N3CCOC[C@H]3C)nc3c(-c4ccn[nH]4)nccc23)c1` [Example 153, 4-(1-ethyl-1H-imidazol-4-yl)-2-[(3R)-3-methylmorpholin-4-yl]-8-(1H-pyrazol-5-yl)-1,7-naphthyridine], for which, under setting [1], the IC50 was found to be 759 nM.

Consider `C[C@@H]1COCCN1c1cc(-c2cccnc2N)c2ccnc(-c3ccn[nH]3)c2n1` [Example 155, 3-{2-[(3R)-3-methylmorpholin-4-yl]-8-(1H-pyrazol-5-yl)-1,7-naphthyridin-4-yl}pyridin-2-amine], for which the IC50 under setting [1] was 959 nM.

The record behind these values is US10772893B2, “2-(morpholin-4-yl)-1,7-naphthyridines” (BAYER PHARMA AKTIENGESELLSCHAFT, priority 2014, dated 2020).
